In EPA's CvTdb concentration-time database:

Experiments:
Rat [1] = experiment: concentration in plasma after dosing; conditions: dosed: 2-Hydroxy-4-methoxybenzophenone, 8 mg/kg, iv, Male, F344
Mouse [2] = experiment: concentration in plasma after dosing; conditions: 10 min; dosed: 2-Hydroxy-4-methoxybenzophenone; 50 mg/kg; iv; Female; B6C3F1
Mouse [3] = experiment: concentration in plasma after dosing; conditions: 0.25 h; dosed: 2-Hydroxy-4-methoxybenzophenone; 250 mg/kg; oral; Male; B6C3F1
Mouse [4] = experiment: concentration in plasma after dosing; conditions: 10 min; dosed: 2-Hydroxy-4-methoxybenzophenone; 250 mg/kg; oral; Male; B6C3F1
Mouse [5] = experiment: concentration in plasma after dosing; conditions: 10 min; dosed: 2-Hydroxy-4-methoxybenzophenone; 500 mg/kg; oral; Female; B6C3F1
Mouse [6] = experiment: concentration in plasma after dosing; conditions: 10 min; dosed: 2-Hydroxy-4-methoxybenzophenone; 500 mg/kg; oral; Female; B6C3F1; remark: listed apart in the source
Rat [7] = experiment: concentration in plasma after dosing; conditions: 10 min; dosed: Nitrite; 80 mg/kg; oral; Female; F344
Rat [8] = experiment: concentration in plasma after dosing; conditions: 2 min; dosed: Nitrite; 40 mg/kg; oral; Female; F344
Rat [9] = experiment: concentration in liver after dosing; conditions: 24 h; dosed: Perfluorooctanoic acid; 80 mg/kg; oral; Female; Harlan Sprague Dawley
Rat [10] = experiment: concentration in liver after dosing; conditions: 24 h; dosed: Perfluorooctanoic acid; 80 mg/kg; oral; Female; Harlan Sprague Dawley; remark: listed apart in the source
Rat [11] = experiment: concentration in liver after dosing; conditions: 1 h; dosed: Fluorotelomer alcohol 8+2; 80 mg/kg; oral; Female; Harlan Sprague Dawley
Rat [12] = experiment: concentration in liver after dosing; conditions: 12 h; dosed: Perfluorooctanoic acid; 80 mg/kg; oral; Female; Harlan Sprague Dawley
Rat [13] = experiment: concentration in plasma after dosing; conditions: dosed: 678-39-7, 40 mg/kg, iv, Female, Harlan Sprague-Dawley
Rat [14] = experiment: concentration in plasma after dosing; conditions: dosed: 678-39-7, 40 mg/kg, iv, Male, F344
Rat [15] = experiment: concentration in kidney after dosing; conditions: 1200 h; dosed: Perfluorooctanoic acid; 12 mg/kg; oral; Male; Harlan Sprague Dawley
Rat [16] = experiment: concentration in plasma after dosing; conditions: dosed: Fluorotelomer alcohol 8+2, 12 mg/kg, oral, Male, Harlan Sprague Dawley
Rat [17] = experiment: concentration in kidney after dosing; conditions: 24 h; dosed: Perfluorooctanoic acid; 80 mg/kg; oral; Female; Harlan Sprague Dawley
Rat [18] = experiment: concentration in kidney after dosing; conditions: 6 h; dosed: Fluorotelomer alcohol 8+2; 24 mg/kg; oral; Male; Harlan Sprague Dawley
Rat [19] = experiment: concentration in plasma after dosing; conditions: dosed: 678-39-7, 40 mg/kg, iv, Male, F344; remark: listed apart in the source
Rat [20] = experiment: concentration in kidney after dosing; conditions: 528 h; dosed: Perfluorooctanoic acid; 12 mg/kg; oral; Male; Harlan Sprague Dawley
Rat [21] = experiment: concentration in plasma after dosing; conditions: dosed: 678-39-7, 40 mg/kg, iv, Male, F344; remark: listed apart in the source
Rat [22] = experiment: concentration in plasma after dosing; conditions: dosed: 678-39-7, 40 mg/kg, iv, Female, Harlan Sprague-Dawley; remark: listed apart in the source
Rat [23] = experiment: concentration in kidney after dosing; conditions: 12 h; dosed: Perfluorooctanoic acid; 80 mg/kg; oral; Female; Harlan Sprague Dawley
Rat [24] = experiment: concentration in kidney after dosing; conditions: 3 h; dosed: Fluorotelomer alcohol 8+2; 24 mg/kg; oral; Male; Harlan Sprague Dawley
Rat [25] = experiment: concentration in plasma after dosing; conditions: 3 h; dosed: Fluorotelomer alcohol 8+2; 12 mg/kg; oral; Male; Harlan Sprague Dawley
Rat [26] = experiment: concentration in plasma after dosing; conditions: dosed: 678-39-7, 12 mg/kg, iv, Male, F344
Rat [27] = experiment: concentration in liver after dosing; conditions: 3 h; dosed: Potassium Perfluorobutane Sulfonate; 20 mg/kg; oral; Male; Harlan Sprague Dawley
Rat [28] = experiment: concentration in liver after dosing; conditions: 0.5 h; dosed: Potassium Perfluorobutane Sulfonate; 20 mg/kg; oral; Male; Harlan Sprague Dawley
Rat [29] = experiment: concentration in kidney after dosing; conditions: 12 h; dosed: Potassium Perfluorobutane Sulfonate; 20 mg/kg; oral; Male; Harlan Sprague Dawley
Rat [30] = experiment: concentration in plasma after dosing; conditions: 1.5 h; dosed: Potassium Perfluorobutane Sulfonate; 4 mg/kg; oral; Male; Harlan Sprague Dawley
Rat [31] = experiment: concentration in kidney after dosing; conditions: 1 h; dosed: Potassium Perfluorobutane Sulfonate; 20 mg/kg; oral; Female; Harlan Sprague Dawley
Rat [32] = experiment: concentration in plasma after dosing; conditions: dosed: Potassium Perfluorobutane Sulfonate, 4 mg/kg, iv, Male, F344
Rat [33] = experiment: concentration in plasma after dosing; conditions: dosed: Potassium Perfluorobutane Sulfonate, 20 mg/kg, oral, Male, Harlan Sprague Dawley
Rat [34] = experiment: concentration in kidney after dosing; conditions: 6 h; dosed: Potassium Perfluorobutane Sulfonate; 20 mg/kg; oral; Female; Harlan Sprague Dawley
Rat [35] = experiment: concentration in plasma after dosing; conditions: 1 h; dosed: Potassium Perfluorobutane Sulfonate; 4 mg/kg; iv; Female; Harlan Sprague-Dawley

COc1ccc(C(=O)c2ccccc2)c(O)c1 [2-Hydroxy-4-methoxybenzophenone]
Rat [1]
Conditions | concentration in plasma [ng/mL]
10 h | 6.58
10 min | 3950

Conditions | concentration in plasma [ng/mL]
Mouse [2] | 8410
Mouse [3] | 289
Mouse [4] | 93.1
Mouse [5] | 687
Mouse [6] | 535

O=N[O-] [Nitrite]
Conditions | concentration in plasma [ng/mL]
Rat [7] | 22900
Rat [8] | 1900

O=C(O)C(F)(F)C(F)(F)C(F)(F)C(F)(F)C(F)(F)C(F)(F)C(F)(F)F [Perfluorooctanoic acid]
Conditions | concentration in kidney [ng/g] | concentration in liver [ng/g] | concentration in plasma [ng/mL]
Rat [9] | – | 10000 | –
Rat [10] | – | 7880 | –
Rat [11] | – | 601 | –
Rat [12] | – | 59900 | –
Rat [15] | 1110 | – | –
Rat [17] | 12300 | – | –
Rat [18] | 421 | – | –
Rat [20] | 6860 | – | –
Rat [23] | 93700 | – | –
Rat [24] | 272 | – | –
Rat [25] | – | – | 392

Conditions | concentration in plasma [ng/mL]
Rat [13], 1 h | 2280
Rat [13], 24 h | 58.8
Rat [14], 0.5 h | 219000
Rat [14], 3 h | 1660
Rat [14], 12 h | 28000
Rat [16], 48 h | 614
Rat [16], 192 h | 399
Rat [19], 0.5 h | 234000
Rat [19], 3 h | 2800
Rat [19], 5 min | 172
Rat [19], 12 h | 25600
Rat [21], 0.25 h | 276000
Rat [21], 6 h | 77700
Rat [21], 48 h | 31.9
Rat [22], 0.75 h | 1470
Rat [22], 12 h | 372
Rat [26], 1 h | 342
Rat [26], 6 h | 463

O=S(=O)([O-])C(F)(F)C(F)(F)C(F)(F)C(F)(F)F.[K+] [Potassium Perfluorobutane Sulfonate]
Conditions | concentration in kidney [ng/g] | concentration in liver [ng/g] | concentration in plasma [ng/mL]
Rat [27] | – | 80000 | –
Rat [28] | – | 62000 | –
Rat [29] | 3610 | – | –
Rat [30] | – | – | 13500
Rat [31] | 21100 | – | –
Rat [34] | 587 | – | –
Rat [35] | – | – | 3410

concentration in plasma [ng/mL]
Conditions | 0.25 h | 0.75 h | 24 h
Rat [32] | – | 24500 | 575
Rat [33] | 24800 | – | 848
